Laboratory results from PubChem BioAssay (NCI).
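A five-concentration, 48-hour dose response in 96-well plates underlies each endpoint, interpolated linearly between surrounding concentrations. TGI: total growth inhibition.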 Where a SMILES comes first, the peptide text is derived from it. [ ]: non-standard residue; d: D form. The star is where a group is joined. ξ: configuration not given here. X37 = O=C(OCc1ccccc1)[C@@H]1CCC[C@H]1N*; Fmoc = O=C(OCC1c2ccccc2-c2ccccc21)*; ξW = NC(Cc1c[nH]c2ccccc12)C(=O)O; ξF = NC(Cc1ccccc1)C(=O)O; Boc = CC(C)(C)OC(=O)*; ξK = NCCCCC(N)C(=O)O; ξT = CC(O)C(N)C(=O)O; tBu = CC(C)(C)*

Legend:
Experiment in all cases: NCI tumour cell line growth inhibition, 48 h
LOX IMVI melanoma = tested on: LOX IMVI melanoma
SR leukemia = tested on: SR leukemia
HCC-2998 colon = tested on: HCC-2998 colon
MALME-3M melanoma = tested on: MALME-3M melanoma
SF-539 CNS = tested on: SF-539 CNS
ACHN renal = tested on: ACHN renal
HCT-15 colon = tested on: HCT-15 colon
NCI-H460 lung = tested on: NCI-H460 lung
SK-MEL-5 melanoma = tested on: SK-MEL-5 melanoma
MCF7 breast = tested on: MCF7 breast

SMILES | TGI (LOX IMVI melanoma) [µM] | TGI (SR leukemia) [µM] | TGI (HCC-2998 colon) [µM] | TGI (MALME-3M melanoma) [µM] | TGI (SF-539 CNS) [µM] | TGI (ACHN renal) [µM] | TGI (HCT-15 colon) [µM] | TGI (NCI-H460 lung) [µM] | TGI (SK-MEL-5 melanoma) [µM] | TGI (MCF7 breast) [µM]
CC(OC(C)(C)C)C(NC(=O)C(CCCCNC(=O)OC(C)(C)C)NC(=O)C(Cc1c[nH]c2ccccc12)NC(=O)C(Cc1ccccc1)NC(=O)OCC1c2ccccc2-c2ccccc21)C(=O)NC(Cc1ccccc1)C(=O)N[C@@H]1CCC[C@H]1C(=O)OCc1ccccc1 (stereo not given in full) (Fmoc-[ξF][ξW][ξK](Boc)[ξT](tBu)[ξF]-X37) | > 100 | > 100 | > 100 | > 100 | > 100 | > 100 | > 100 | > 100 | > 100 | > 100
CC1(c2cccc(C3CCC4(C=CC3=O)OCCO4)c2)OCCO1 (stereo not given) | 27.8 | 12.5 | 33.1 | 10.9 | 28.5 | 15.5 | 14.7 | 30.6 | 28 | 25.9
CC(C)(C)[C@@H]1NC(=O)CN1C(=O)OCc1ccccc1 | > 100 | > 100 | > 100 | > 100 | > 100 | > 100 | > 100 | > 100 | > 100 | > 100
Cc1ccc(Nc2ncnc3sc(SCc4ccccc4)nc23)cc1 | > 100 | > 100 | > 100 | > 100 | > 100 | > 100 | > 100 | > 100 | > 100 | > 100
Cc1cc(SCC(=O)c2ccc(Br)cc2)cc(C)[o+]1 | > 100 | > 100 | 75.2 | 97.9 | 44.5 | 96.2 | > 100 | 76.2 | 35.9 | 38.2
Cc1[nH]n(C(=O)c2ccccc2O)c(=O)c1/C=C1\C(=O)C=Cc2ccccc21 | 8.79 | > 100 | > 71.7 | 16.5 | 3.35 | 12.8 | > 100 | 9.94 | 4.26 | 15.1
